The test system of one assay is Human dermal fibroblasts. The experiment in a line: Extracellular acidification rate (ECAR) of fibroblasts after hydrogen peroxide challenge. It is filed as cell-based. The method, then: The effect of a combination of a flavonoid compound, a vitamin B3 compound, and a hydrolyzed silk protein on cellular energy production was assessed by measuring the extracellular acidification rate (“ECAR”) of fibroblasts after exposure to hydrogen peroxide challenge (FIG. 2). ECAR provides an indirect measure of glycolysis. Treatment with hydrogen peroxide replicates stress induced by UV radiation or chemical pollution and decreases the ECAR. An XF Extracellular Flux Analyzer (Seahorse Bioscience, North Billerica, Mass.) was used to detect extracellular acidification rate. Human dermal fibroblasts were plated at 1×10^5 cells per well in a 96-well plate 24 hours prior to testing. The plate was loaded into the analyzer and equilibrated according to the manufacturer's instructions. Hydrogen peroxide, quercetin (Tocris Bioscience), GSS (BioSpectrum) and niacinamide were loaded into an automated injection port of the XF cartridge plate. The analyzer was programmed to sequentially run a two-minute mix cycle and a four-minute measurement cycle continuously for at least 108 minutes. Data points were collected and recorded by the analyzer. The analyzer was allowed to complete three cycles to establish a baseline value for glycolysis prior to being exposed to the peroxide solution. […]
[…] The ECAR was calculated as a percent of pre-treatment baseline. […]

A further assay relates to human keratinocytes. Kind of assay: Intracellular ATP levels in keratinocytes stressed with H2O2 (ATP Glo luminescence). It is filed as cell-based. To be noted: for ATP: luminescent counts; for % Control: ATP. As to the method:
The effects of a flavonoid compound, a vitamin B3 compound, a hydrolyzed silk protein and a combination thereof, on intracellular ATP levels were assessed. Keratinocytes were cultured in T150 flasks in EpiLife® medium (MEPICFPRF500, Life Technologies, Grand Island, N.Y.) supplemented with human keratinocyte growth supplement (S-001-5, Life Technologies) and 1% penicillin/streptomycin (15140-122, Life Technologies). When the keratinocytes reached about 70% confluency, they were plated on 96-well plates at a density of 20,000 cells/well. The plates were incubated for 24 hours before the experimental stressor (H2O2) and treatment (niacinamide and/or GSS, Crosilk™ 1000, Crosilk™ Liquid, or HerbEx Silk Peptides) were applied.
The 96-well plate was divided into groups of wells in which (1) no stressor or treatment was applied, (2) stressor was applied but no treatment, and (3) stressor and treatment were applied. For the no stressor or treatment group, the culture medium was simply refreshed. In combination experiments, stressor and two treatments were applied. […] The plates were returned to the CO2 incubator for 90 minutes before ATP was measured.
ATP was measured by removing the media from all treatment groups and controls and replacing the media with ATP Glo® reagent (Promega, Madison, Wis.) per the manufacturer's instructions. After 10 minutes of exposure at room temperature, the luminescence was measured using an EnVision® plate reader (Perkin Elmer, Waltham, Mass.). The luminescent counts that were the output from the measurement were directly proportional to the ATP levels in the cells.
Replicates of each treatment group were averaged together and standard p-value calculations were used (2-sided, equal variance) to calculate significance. In cases where two treatments appeared to synergistically enhance ATP levels, the observed results were compared to the sum of the individual treatment groups to determine significance. The ATP levels measured following treatment are provided below.

[1] abbreviates: 250 uM Niacinamide + 880 uM H202.

Molecules are shown by their SMILES. Several values for one entry are separate records, joined by “and”; a condition that tells them apart may be missing. Equal values may be shown once.

Consider `O=c1c(O)c(-c2ccc(O)c(O)c2)oc2cc(O)cc(O)c12` [Quercetin, 2-(3,4-dihydroxyphenyl)-3,5,7-trihydroxy-4H-chromen-4-one], for which the “rate of glycolysis (ECAR) in stressed cells” value with Human dermal fibroblasts (1.5 mM hydrogen peroxide, 15 uM quercetin, 90 minutes following treatment (FIG. 1)) is listed as “significantly increase the rate of glycolysis”.

`NC(=O)c1cccnc1` [Niacinamide, niacinamide]: the ATP was 85645 and 75045 and 80345 in the assay on human keratinocytes (setting [1]); 185268 in the assay with human keratinocytes (0.05% Niacinamide + 800 uM H202, 90 minutes). Besides, the “% Control” value in the assay with human keratinocytes (setting [1]) was 29.5%; in the assay on human keratinocytes (0.05% Niacinamide + 800 uM H202), 43.3%. For the same compound, in the assay with Human dermal fibroblasts (1.75 mM hydrogen peroxide, 3% niacinamide alone), the “ECAR as percent of pre-treatment baseline” value is “provided a protective effect and increased the ECAR”.
